Assay results published in PMC2850566 (Biochemical pharmacology, 2010).
Read-outs that look alike come from different tables or passages of the source.

Legend:
β2-AR = settings: cardiomyocytes; cited from earlier work
rat cardiomyocyte [1] = settings: read-out: EC50cardio; rat cardiomyocyte contractility; cited from earlier work
human β2-AR = human β2-AR (Homo sapiens, UniProt P07550); settings: plotted from previously reported ΔH° and TΔS°; cited from earlier work
rat cardiomyocyte [2] = assay: Rat cardiomyocyte contractility model; assay type: cell-based; settings: read-out: EC50cardio, authors' unpublished data

human β2-AR, sequence (P07550 whole entry): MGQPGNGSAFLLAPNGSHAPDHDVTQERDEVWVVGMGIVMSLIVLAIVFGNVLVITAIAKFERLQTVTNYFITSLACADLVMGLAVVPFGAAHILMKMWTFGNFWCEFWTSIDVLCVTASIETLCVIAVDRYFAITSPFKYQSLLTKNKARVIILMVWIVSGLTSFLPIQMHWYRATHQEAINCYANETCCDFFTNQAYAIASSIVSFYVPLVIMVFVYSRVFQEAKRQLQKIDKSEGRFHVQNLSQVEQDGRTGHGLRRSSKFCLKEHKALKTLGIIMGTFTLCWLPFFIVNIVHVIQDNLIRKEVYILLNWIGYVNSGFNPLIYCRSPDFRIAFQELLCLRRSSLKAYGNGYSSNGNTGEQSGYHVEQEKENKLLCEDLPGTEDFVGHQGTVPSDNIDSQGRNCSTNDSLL

SMILES	β2-AR coupling preference for G-proteins (β2-AR)	EC50 (rat cardiomyocyte [1]) [nM]	Quadrant in the TΔS° and ΔH° plot (human β2-AR)	EC50 (rat cardiomyocyte [2]) [nM]
C[C@H](Cc1ccc(O)cc1)NC[C@@H](O)c1cc(O)cc(O)c1 [(S,R')-fenoterol]	activates both Gs and Gi proteins	2340		
CC(Cc1ccc(O)cc1)NCC(O)c1cc(O)cc(O)c1 (racemic) [rac-fenoterol]			enthalpy-entropy driven process	
C[C@@H](Cc1ccc(O)cc1)NC[C@H](O)c1cc(O)cc(O)c1 [(R,S')-fenoterol]		575		
CC(Cc1ccc(O)cc1)NCC(O)c1cc(O)cc(O)c1 [(R,R')-fenoterol]	preferentially activates Gs signaling	73		
CC(Cc1ccc(O)cc1)NCC(O)c1cc(O)cc(O)c1 [(S,S')-fenoterol]				55000
